Reference: ChEMBL document CHEMBL1136346, “Synthesis of linked carbohydrates and evaluation of their binding for 16S RNA by mass spectrometry” (Bioorg Med Chem Lett, 2003)

Assay: Binding affinity against bacterial 16S rRNA using mass spectrometry based assay
Parameters: species or system Escherichia coli

Row | Kd | Compound
1 | 45 µM | CN(CCCCN(C)CC(O)CO[C@H]1O[C@H](CO)[C@@H](O)[C@H](O)[C@H]1N)CC(O)CO[C@@H]1O[C@H](CO)[C@@H](O)[C@H](O)[C@H]1N (stereo partly drawn)
2 | 52 µM | CN(CCCCCCN(C)CC(O)CO[C@H]1O[C@H](CO)[C@@H](O)[C@H](O)[C@H]1N)CC(O)CO[C@@H]1O[C@H](CO)[C@@H](O)[C@H](O)[C@H]1N (stereo partly drawn)
3 | 32 µM | NC[C@H]1O[C@H](OCC(O)CN2CCN(CC(O)CO[C@H]3O[C@H](CN)[C@@H](O)[C@H](O)[C@H]3N)CC2)[C@H](N)[C@@H](O)[C@@H]1O (stereo partly drawn)
4 | 11 µM | CN(CCCCCCN(C)CC(O)CO[C@H]1O[C@H](CN)[C@@H](O)[C@H](O)[C@H]1N)CC(O)CO[C@@H]1O[C@H](CN)[C@@H](O)[C@H](O)[C@H]1N (stereo partly drawn)
5 | 16 µM | CN(CCCCN(C)CC(O)CO[C@H]1[C@H](O)[C@@H](O)[C@H](N)C[C@@H]1N)CC(O)CO[C@H]1[C@H](O)[C@@H](O)[C@H](N)C[C@@H]1N (stereo partly drawn)
6 | 13 µM | CN(CCCCN(C)CC(O)CO[C@H]1[C@H](O)[C@@H](O)[C@H](N)C[C@@H]1N)CC(O)CO[C@H]1O[C@H](CN)[C@@H](O)[C@H](O)[C@H]1N (stereo partly drawn)
7 | 39 µM | CN(CCCCCCN(C)CC(O)CO[C@H]1[C@H](O)[C@@H](O)[C@H](N)C[C@@H]1N)CC(O)CO[C@H]1O[C@H](CO)[C@@H](O)[C@H](O)[C@H]1N (stereo partly drawn)
8 | 130 µM | N[C@@H]1C[C@H](N)[C@@H](O)[C@H](O)[C@H]1O
9 | 32 µM | CN(CCCCCCN(C)CC(O)CO[C@H]1[C@H](O)[C@@H](O)[C@H](N)C[C@@H]1N)CC(O)CO[C@H]1O[C@H](CN)[C@@H](O)[C@H](O)[C@H]1N (stereo partly drawn)
10 | 335 µM | CN(CCN(C)CC(O)CO[C@H]1[C@H](O)[C@@H](O)[C@H](N)C[C@@H]1N)CC(O)CO[C@H]1O[C@H](CO)[C@@H](O)[C@H](O)[C@H]1N (stereo partly drawn)
11 | 1590 µM | C=CCO[C@H]1O[C@H](CO)[C@@H](O)[C@H](O)[C@H]1N
12 | 327 µM | C=CCO[C@H]1O[C@H](CN)C(O)[C@H](O)[C@H]1N (stereo partly drawn)
13 | 146 µM | CN(CCN(C)CC(O)CO[C@H]1O[C@H](CO)[C@@H](O)[C@H](O)[C@H]1N)CC(O)CO[C@@H]1O[C@H](CO)[C@@H](O)[C@H](O)[C@H]1N (stereo partly drawn)
14 | 20 µM | CN(CCN(C)CC(O)CO[C@H]1O[C@H](CN)[C@@H](O)[C@H](O)[C@H]1N)CC(O)CO[C@@H]1O[C@H](CN)[C@@H](O)[C@H](O)[C@H]1N (stereo partly drawn)
15 | 16 µM | CN(CCCCN(C)CC(O)CO[C@H]1O[C@H](CN)[C@@H](O)[C@H](O)[C@H]1N)CC(O)CO[C@@H]1O[C@H](CN)[C@@H](O)[C@H](O)[C@H]1N (stereo partly drawn)
16 | 47 µM | CN(CCN(C)CC(O)CO[C@H]1[C@H](O)[C@@H](O)[C@H](N)C[C@@H]1N)CC(O)CO[C@H]1O[C@H](CN)[C@@H](O)[C@H](O)[C@H]1N (stereo partly drawn)
17 | 21 µM | CN(CCCCCCN(C)CC(O)CO[C@H]1[C@H](O)[C@@H](O)[C@H](N)C[C@@H]1N)CC(O)CO[C@H]1[C@H](O)[C@@H](O)[C@H](N)C[C@@H]1N (stereo partly drawn)
18 | 105 µM | N[C@@H]1C[C@H](N)[C@@H](OC(=O)CCCC(=O)O[C@H]2[C@H](O)[C@@H](O)[C@H](N)C[C@@H]2N)[C@H](O)[C@H]1O
19 | 25 µM | CN(CCCCN(C)CC(O)CO[C@@H]1[C@@H](O)[C@H](N)C[C@H](N)[C@H]1O)CC(O)CO[C@H]1O[C@H](CN)[C@@H](O)[C@H](O)[C@H]1N (stereo partly drawn)
20 | 29 µM | CN(CCCCN(C)CC(O)CO[C@@H]1[C@@H](O)[C@H](N)C[C@H](N)[C@H]1O)CC(O)CO[C@H]1O[C@H](CO)[C@@H](O)[C@H](O)[C@H]1N (stereo partly drawn)
21 | 54 µM | CN(CCCCN(C)CC(O)CO[C@H]1[C@H](O)[C@@H](O)[C@H](N)C[C@@H]1N)CC(O)CO[C@H]1O[C@H](CO)[C@@H](O)[C@H](O)[C@H]1N (stereo partly drawn)
22 | 96 µM | N[C@@H]1C[C@H](N)[C@@H](O)[C@H](OCC(O)CNCCCCNCC(O)CO[C@@H]2[C@@H](O)[C@H](N)C[C@H](N)[C@H]2O)[C@H]1O (stereo partly drawn)
23 | 57 µM | CN(CCN(C)CC(O)CO[C@H]1[C@H](O)[C@@H](O)[C@H](N)C[C@@H]1N)CC(O)CO[C@H]1[C@H](O)[C@@H](O)[C@H](N)C[C@@H]1N (stereo partly drawn)
